# Calls of active or inactive are those of the source. No cut-off for these calls is given here.
# What was measured:
# [1] = Activation of quorum sensing system in Pseudomonas aeruginosa JP1 assessed as increase in pyocyanin production at 100 uM measured after 6 hrs relative to control; conditions: for fold change (FC): filed as activator
# MDA-MB-231 [2] = experiment: Synergistic anticancer activity against human MDA-MB-231 cells assessed as reduction in cell viability at 25 uM pretreated for 3 hrs followed by TRAIL stimulation measured after 24 hrs; assay type: functional; set-up: unit not given here; conditions: time 27 hrs
# MDA-MB-231 [3] = experiment: Synergistic anticancer activity against human MDA-MB-231 cells assessed as reduction in cell viability at 50 uM pretreated for 3 hrs followed by TRAIL stimulation measured after 24 hrs; assay type: functional; set-up: unit not given here; conditions: time 27 hrs
# Vibrio harveyi [4] = experiment: Activation of quorum sensing in Vibrio harveyi from 10 to 200 uM after 7 hrs by luminescence method; conditions: filed as activator, dose 10-200 µM
# [5] = target: T1, Transcriptional activator protein LasR (Pseudomonas aeruginosa (strain ATCC 15692 / PAO1 / 1C / PRS 101 / LMG12228)) (UniProt P25084); experiment: Binding affinity to wild type Pseudomonas aeruginosa LasR expressed in Escherichia coli at 100 uM measured after 6 hrs by luminescence assay; conditions: filed as activator
# T1 sequence (whole entry): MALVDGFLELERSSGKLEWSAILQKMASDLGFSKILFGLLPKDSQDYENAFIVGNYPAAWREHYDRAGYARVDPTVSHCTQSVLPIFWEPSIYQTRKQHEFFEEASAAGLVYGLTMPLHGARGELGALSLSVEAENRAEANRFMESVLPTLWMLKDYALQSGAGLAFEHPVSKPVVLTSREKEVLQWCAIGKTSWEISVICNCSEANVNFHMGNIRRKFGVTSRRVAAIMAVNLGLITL
# Pseudomonas aeruginosa [6] = experiment: Binding affinity to Pseudomonas aeruginosa LasR Y56F mutant expressed in Escherichia coli at 100 uM measured after 6 hrs by luminescence assay; conditions: filed as activator
# Pseudomonas aeruginosa [7] = experiment: Binding affinity to Pseudomonas aeruginosa LasR W60F mutant expressed in Escherichia coli at 100 uM measured after 6 hrs by luminescence assay; conditions: filed as activator
# Pseudomonas aeruginosa [8] = experiment: Binding affinity to Pseudomonas aeruginosa LasR D73N mutant expressed in Escherichia coli at 100 uM measured after 6 hrs by luminescence assay; conditions: filed as activator
# MDA-MB-231 [9] = experiment: Induction of apoptosis in human MDA-MB-231 cells assessed as increase in cleaved PARP level at 50 uM by Western blot analysis; assay type: functional, cell-based
# Vibrio harveyi [10] = experiment: Activation of quorum sensing in Vibrio harveyi upto 100 uM after 7 hrs by luminescence method; conditions: filed as activator, dose microM <=100, time 7.0 hrs
SMILES,Activity (MDA-MB-231 [2]),Activity (MDA-MB-231 [3]),fold change (FC) [1],also measured
C#CCCCC[C@@H](C)C(=O)NCCCC[C@@H]1NC(=O)C=C1OC,0.02,0,,Activity [1]: inactive
C#CCCCC[C@@H](C)C(=O)NCCCC[C@H]1C(OC)=CC(=O)N1C(=O)[C@H](C)CCCCC#C,0.08,0.01,3,Activity (Vibrio harveyi [4]): Active; Activity [5]: Active; Activity (Pseudomonas aeruginosa [6]): Active; Activity (Pseudomonas aeruginosa [7]): Active; Activity (Pseudomonas aeruginosa [8]): Active
C#CCCCC[C@@H](C)C(=O)N1C(=O)C=C(OC)[C@@H]1CCCCNC(=O)OC(C)(C)C,0.18,0.05,3,Activity (Vibrio harveyi [4]): Active
CCCCCC[C@@H](C)C(=O)NCCCC[C@H]1C(OC)=CC(=O)N1C(=O)[C@H](C)CCCCCC,0.31,0.23,,
CCCCCC[C@@H](C)C(=O)N1C(=O)C=C(OC)[C@@H]1CCCCNC(=O)OC(C)(C)C,0.26,0.14,5,Activity (MDA-MB-231 [9]): Active
C=CCCCC[C@@H](C)C(=O)N1C(=O)C=C(OC)[C@@H]1CCCCNC(=O)OC(C)(C)C,0.06,0.02,4,
C=CCCCC[C@@H](C)C(=O)NCCCC[C@H]1C(OC)=CC(=O)N1C(=O)[C@H](C)CCCCC=C,0.31,0.08,,Activity (Vibrio harveyi [10]): Active
CCCCCCCCCC(=O)CC(=O)N[C@H]1CCOC1=O,0.05,-0.07,,
